Reference: patent US11999755B1, “Effective anticancer drug candidate of dinuclear palladium (II) bis-dihydrozone malonyl complex” (KING FAISAL UNIVERSITY, priority 2024, dated 2024)

Columns and labels:
[1] = test system: HCT-116 (colon carcinoma); test: SRB anticancer assay, HCT-116; format: cell-based, human; settings: for IC50: SRB stain, 48 hours at 37° C., absorbance 564 nm
Source text: (§1) Investigation for the bio-reactivity of H2L and PdL, as anticancer candidates, was achieved versus well documented human cancer cell lines, as three cancers entitled HepG2, MCF-7, and HCT-116, using the simplest tool SRB (sulforhodamine-B-stain). In particular, the most popular anticancer referenced drug (vinblastine) was used in the anticancer assay (the inhibited action of the cancer cells) to compare its bio-reactivity versus that one of H2L and PdL.
(§2) With HepG-2 (Hepatocellular carcinoma), HCT-116 (colon carcinoma), and MCF7 (breast adenocarcinoma), as human cancer cell lines, the antiproliferative reactivity of H2L and PdL was studied against the growth of these cancer cells by applying a spectrometric tool. Using SRB (sulforhodamine-B-stain) was essential in the spectrometric studies at a specific wavelength (564 nm, the optimized absorption wavelength). Recording the corresponded absorbance (A) at 564 nm was accomplished using a UV/Vis. spectrophotometer, UV-1800 mode Shimadzu with a mono-cell holder. With plates of 96-multiwell model, the culture of the current human cancer cell lines of 10^4 cells per well were accomplished followed by a gentle addition of DMSO solution of H2L or PdL the cultured wells of the cancer cell lines.
(§3) The resulting mixed solution of H2L or PdL solution with the subjected cancer cell line of human in SRB was assigned in incubated isolated atmosphere for 48 hours at 37° C. The isolated atmosphere was accomplished by CO2 gas bubbling with v/v […].
(§4) The same procedure was followed with vinblastine, as vinblastine was subjected as a reference anticancer agent to compare its reactivity against that one of the studied H2L and PdL. For WI-38, as the normal human fetal lung fibroblast, the pervious procedure of the cancer cell lines was applied for H2L and PdL to evaluate their selectivity index. Using Eq. 1, below, to derive the inhibited potential of H2L or PdL against the growth of the human cancer and normal cell lines through their effective concentration in M (IC50, the half effective concentration of H2L or PdL): […]

[2] = test system: HepG-2 (Hepatocellular carcinoma); test: SRB anticancer assay, HepG-2; format: cell-based, human; settings: for IC50: SRB stain, 48 hours at 37° C., absorbance 564 nm
Source text: as §1, §2, §3, §4

[3] = test system: WI-38, normal human fetal lung fibroblast; test: SRB assay on normal cell line WI-38; format: cell-based; settings: SRB stain, 48 hours at 37° C.
Source text: as §1
as §2, with “lines. […]” for “lines.”

[4] = test system: MCF7 (breast adenocarcinoma); test: SRB anticancer assay, MCF-7; format: cell-based, human; settings: for IC50: SRB stain, 48 hours at 37° C., absorbance 564 nm
Source text: as §1, §2, §3, §4

| IC50 [1] | IC50 [2] | IC50 [4] | IC50 ([1]; Homo sapiens, HCT-116) | IC50 ([2]; Homo sapiens, HepG2) | IC50 ([4]; Homo sapiens, MCF7) | Structure (SMILES) | Selectivity index HCT-116 ([1]; normal WI-38 versus HCT-116) | Selectivity index HepG-2 ([2]; normal WI-38 versus HepG-2) | IC50 [3] | Selectivity index MCF-7 ([4]; normal WI-38 versus MCF-7) |
| --- | --- | --- | --- | --- | --- | --- | --- | --- | --- | --- |
| 49.6 µM | 48.6 µM | 43.1 µM |  |  |  | O=C(CC(=O)NN=C1C(=O)Nc2ccccc21)NN=C1C(=O)Nc2ccccc21 [H2L, malonyl dihydrazone-isatin ligand] | 2.71 | 2.77 | 133 ± 0.75 µM | 3.09 |
|  |  |  | 13.3 ± 0.11 µM | 7.5 ± 0.1 µM | 4.12 ± 0.14 µM | CC[C@]1(O)C[C@@H]2CN(CCc3c([nH]c4ccccc34)[C@@](C(=O)OC)(c3cc4c(cc3OC)N(C)[C@H]3[C@@](O)(C(=O)OC)[C@H](OC(C)=O)[C@]5(CC)C=CCN6CC[C@]43[C@@H]65)C2)C1 [Vinblastine, vinblastine, reference compound] |  |  |  |  |
